Laboratory results from patent US9458133B2, “Isoquinolines as potassium ion channel inhibitors” (BRISTOL-MYERS SQUIBB COMPANY, priority 2013, dated 2016).

What follows are compounds tested against T1, human Kv 1.5 (Homo sapiens, UniProt P22460) (assay: Block of IKur current in patch clamped L-929 cells stably expressing human Kv1.5). Details: L929, 0.3 μM; patch clamped mammalian L-929 cells expressing human Kv1.5 (IKur); read-out: KV1_5% Inh L929 @0.3 μM.
T1 construct: expressed in transfected cells; host or cells: mouse L-929 fibroblasts stably expressing human Kv1.5
T1 sequence (P22460 whole entry): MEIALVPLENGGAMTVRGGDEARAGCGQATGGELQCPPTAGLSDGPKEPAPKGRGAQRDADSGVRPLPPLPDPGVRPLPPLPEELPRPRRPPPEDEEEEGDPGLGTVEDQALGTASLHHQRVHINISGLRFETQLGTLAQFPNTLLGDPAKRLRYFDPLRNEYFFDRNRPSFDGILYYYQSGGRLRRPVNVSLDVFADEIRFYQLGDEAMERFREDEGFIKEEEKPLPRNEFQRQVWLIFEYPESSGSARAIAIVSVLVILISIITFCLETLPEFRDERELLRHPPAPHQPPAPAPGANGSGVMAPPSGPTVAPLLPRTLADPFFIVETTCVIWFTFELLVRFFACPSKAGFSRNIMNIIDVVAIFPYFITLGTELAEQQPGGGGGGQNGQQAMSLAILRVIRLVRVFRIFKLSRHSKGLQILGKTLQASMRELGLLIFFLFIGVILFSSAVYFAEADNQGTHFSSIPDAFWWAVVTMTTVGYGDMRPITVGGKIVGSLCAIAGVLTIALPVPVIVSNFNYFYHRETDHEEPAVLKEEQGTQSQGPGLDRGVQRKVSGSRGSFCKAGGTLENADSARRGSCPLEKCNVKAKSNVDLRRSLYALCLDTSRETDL
Assay type: cell-based
Excerpt: Synders, D. J. et al., “A rapidly activating and slowly inactivating potassium channel cloned from human heart: functional analysis after stable mammalian cell culture expression”, J. Gen. Physiol., 101:513-543 (1993). […]

Compound | inhibition at 0.3 µM
NC(=O)c1nc(NCc2ccccc2)c2c(-c3ccccc3)cccc2c1-c1cncc(S(N)(=O)=O)c1 [Example 17, 1-(Benzylamino)-8-phenyl-4-(5-sulfamoylpyridin-3-yl)isoquinoline-3-carboxamide] | 93.5%
NS(=O)(=O)c1cncc(-c2cc3cccc(-c4ccccc4)c3c(NCc3ccc(F)cc3F)n2)c1 [Example 50, 5-(1-(2,4-difluorobenzylamino)-8-phenylisoquinolin-3-yl)pyridine-3-sulfonamide] | 54.1%
NC(=O)c1cccc(-c2c(Cl)nc(NCc3ccccn3)c3c(-c4ccccc4)cccc23)c1 [Example 66, 3-(3-chloro-8-phenyl-1-(pyridin-2-ylmethylamino)isoquinolin-4-yl)benzamide] | 99.3%
NS(=O)(=O)c1cncc(-c2cc3cccc(-c4ccccc4)c3c(NCCOc3ccccc3)n2)c1 [Example 52, 5-(1-(2-phenoxyethylamino)-8-phenylisoquinolin-3-yl)pyridine-3-sulfonamide] | 55.8%
COc1cccc(CNc2nc(-c3cncc(S(N)(=O)=O)c3)cc3cccc(-c4ccccc4)c23)c1 [Example 54, 5-(1-(3-methoxybenzylamino)-8-phenylisoquinolin-3-yl)pyridine-3-sulfonamide] | 82.4%
NS(=O)(=O)c1cncc(-c2cnc(NCc3ccccn3)c3c(-c4ccccc4)cccc23)c1 [Example 11, 5-(8-Phenyl-1-(pyridin-2-ylmethylamino)isoquinolin-4-yl)pyridine-3-sulfonamide] | 98.9%
NC(=O)c1cccc(-c2cc3cccc(-c4ccccc4)c3c(NCc3ccccn3)n2)c1 [Example 41, 3-(8-phenyl-1-(pyridin-2-ylmethylamino)isoquinolin-3-yl)benzamide] | 54.1%
CS(=O)(=O)Nc1ccc(-c2c(Cl)nc(NCc3ccccn3)c3c(-c4ccccc4)cccc23)cc1 [Example 69, N-(4-(3-chloro-8-phenyl-1-(pyridin-2-ylmethylamino)isoquinolin-4-yl)phenyl)methanesulfonamide] | 98.4%
COc1cc(-c2c(Cl)nc(NCc3ccccn3)c3c(-c4ccccc4)cccc23)ccn1 [Example 62, 3-chloro-4-(2-methoxypyridin-4-yl)-8-phenyl-N-(pyridin-2-ylmethyl)isoquinolin-1-amine] | 95.6%
N#Cc1ccc(-c2c(Cl)nc(NCc3ccccn3)c3c(-c4ccccc4)cccc23)cc1 [Example 56, 4-(3-chloro-8-phenyl-1-(pyridin-2-ylmethylamino)isoquinolin-4-yl)benzonitrile] | 89.7%
NS(=O)(=O)c1cccc(-c2cc3cccc(-c4ccccc4)c3c(NCc3ccccn3)n2)c1 [Example 36, 3-(8-phenyl-1-(pyridin-2-ylmethylamino)isoquinolin-3-yl)benzenesulfonamide] | 94.6%
CNS(=O)(=O)c1cccc(-c2cc3cccc(-c4ccccc4)c3c(NCc3ccccn3)n2)c1 [Example 34, N-methyl-3-(8-phenyl-1-(pyridin-2-ylmethylamino)isoquinolin-3-yl)benzenesulfonamide] | 93.5%
CS(=O)(=O)Nc1cncc(-c2c(Cl)nc(NCc3ccccn3)c3c(-c4ccccc4)cccc23)c1 [Example 47, N-(5-(3-chloro-8-phenyl-1-(pyridin-2-ylmethylamino)isoquinolin-4-yl)pyridin-3-yl)methanesulfonamide] | 98.1%
N#Cc1nc(NCc2ccccc2)c2c(-c3ccccc3)cccc2c1-c1cncc(S(N)(=O)=O)c1 [Example 16, 5-(1-(Benzylamino)-3-cyano-8-phenylisoquinolin-4-yl)pyridine-3-sulfonamide] | 88.6%
O=C(Nc1cccc(-c2cc3cccc(-c4ccccc4)c3c(NCc3ccccn3)n2)c1)N1CCOCC1 [Example 6, N-(3-(8-Phenyl-1-(pyridin-2-ylmethylamino)isoquinolin-3-yl)phenyl)morpholine-4-carboxamide] | 92.2%
NS(=O)(=O)c1cncc(-c2cnc(NCc3ccccc3)c3c(-c4ccccc4)cccc23)c1 [Example 15, 5-(1-(Benzylamino)-8-phenylisoquinolin-4-yl)pyridine-3-sulfonamide] | 96.2%
CC(=O)Nc1ccc(-c2cc3cccc(-c4ccccc4)c3c(NCc3ccccn3)n2)cn1 [Example 64, N-(5-(8-phenyl-1-(pyridin-2-ylmethylamino)isoquinolin-3-yl)pyridin-2-yl)acetamide] | 57.5%
Cc1cc(C)cc(CNc2nc(-c3cncc(S(N)(=O)=O)c3)cc3cccc(-c4ccccc4)c23)c1 [Example 53, 5-(1-(3,5-dimethylbenzylamino)-8-phenylisoquinolin-3-yl)pyridine-3-sulfonamide] | 40.1%
NS(=O)(=O)c1ccc(-c2cnc(NCc3ccccn3)c3c(-c4ccccc4)cccc23)cc1 [Example 76, 4-(8-phenyl-1-(pyridin-2-ylmethylamino)isoquinolin-4-yl)benzenesulfonamide] | 97.2%
NS(=O)(=O)c1cncc(-c2cc3cccc(-c4ccccc4)c3c(N[C@H]3CCC[C@@H]3OCc3ccccc3)n2)c1 [Example 73, 5-(1-((1S,2S)-2-(benzyloxy)cyclopentylamino)-8-phenylisoquinolin-3-yl)pyridine-3-sulfonamide] | 56.3%

Next, values leading:

inhibition at 0.3 µM | Compound
79.5% | Cc1cnc(CNc2nc(-c3cncc(S(N)(=O)=O)c3)cc3cccc(-c4ccccc4)c23)cn1 [Example 74, 5-(1-((5-methylpyrazin-2-yl)methylamino)-8-phenylisoquinolin-3-yl)pyridine-3-sulfonamide]
50.6% | NS(=O)(=O)c1cncc(-c2cc3cccc(-c4ccc(F)cc4)c3c(NCc3ccccn3)n2)c1 [Example 21, 5-(8-(4-fluorophenyl)-1-(pyridin-2-ylmethylamino)isoquinolin-3-yl)pyridine-3-sulfonamide]
41.5% | CC(C)CNc1nc(-c2cncc(S(N)(=O)=O)c2)cc2cccc(-c3ccccc3)c12 [Example 24, 5-(1-(isobutylamino)-8-phenylisoquinolin-3-yl)pyridine-3-sulfonamide]
64.5% | Cc1n[nH]c(C)c1-c1cc2cccc(-c3ccccc3)c2c(NCc2ccccn2)n1 [Example 20, 3-(3,5-dimethyl-1H-pyrazol-4-yl)-8-phenyl-N-(pyridin-2-ylmethyl)isoquinolin-1-amine]
97.3% | NS(=O)(=O)c1cncc(-c2c(Cl)nc(NCc3ccccc3)c3c(-c4ccccc4)cccc23)c1 [Example 75, 5-(1-(benzylamino)-3-chloro-8-phenylisoquinolin-4-yl)pyridine-3-sulfonamide]
70.7% | CS(=O)(=O)N(c1cncc(-c2cc3cccc(-c4ccccc4)c3c(NCc3ccccn3)n2)c1)S(C)(=O)=O [Example 32, N-(methylsulfonyl)-N-(5-(8-phenyl-1-(pyridin-2-ylmethylamino)isoquinolin-3-yl)pyridin-3-yl)methanesulfonamide]
22.8% | Nc1ccc(-c2cc3cccc(-c4ccccc4)c3c(NCc3ccccn3)n2)cn1 [Example 58, 3-(6-aminopyridin-3-yl)-8-phenyl-N-(pyridin-2-ylmethyl)isoquinolin-1-amine]
18.6% | NS(=O)(=O)c1cccc(-c2cc3cccc(-c4ccccc4)c3c(NCCCc3ccccc3)n2)c1 [Example 44, 3-(8-phenyl-1-(3-phenylpropylamino)isoquinolin-3-yl)benzenesulfonamide]
52.2% | Nc1ccccc1-c1cc2cccc(-c3ccccc3)c2c(NCc2ccccn2)n1 [Example 49, 3-(2-aminophenyl)-8-phenyl-N-(pyridin-2-ylmethyl)isoquinolin-1-amine]
95.7% | CS(=O)(=O)Nc1cccc(-c2c(Cl)nc(NCc3ccccn3)c3c(-c4ccccc4)cccc23)c1 [Example 70, N-(3-(3-chloro-8-phenyl-1-(pyridin-2-ylmethylamino)isoquinolin-4-yl)phenyl)methanesulfonamide]
98.6% | NC(=O)Nc1cncc(-c2c(Cl)nc(NCc3ccccn3)c3c(-c4ccccc4)cccc23)c1 [Example 48, 1-(5-(3-chloro-8-phenyl-1-(pyridin-2-ylmethylamino)isoquinolin-4-yl)pyridin-3-yl)urea]
78.5% | Cc1ccccc1CNc1nc(-c2cncc(S(N)(=O)=O)c2)cc2cccc(-c3ccccc3)c12 [Example 45, 5-(1-(2-methylbenzylamino)-8-phenylisoquinolin-3-yl)pyridine-3-sulfonamide]
67.7% | NS(=O)(=O)c1cncc(-c2cc3cccc(-c4ccccc4)c3c(N[C@H]3CCN(Cc4ccccc4)C3)n2)c1 [Example 71, (S)-5-(1-(1-benzylpyrrolidin-3-ylamino)-8-phenylisoquinolin-3-yl)pyridine-3-sulfonamide]
99% | NS(=O)(=O)c1cccc(-c2cnc(NCc3ccccn3)c3c(-c4ccccc4)cccc23)c1 [Example 85, 3-(8-phenyl-1-(pyridin-2-ylmethylamino)isoquinolin-4-yl)benzenesulfonamide]
99% | Nc1ccc(-c2c(Cl)nc(NCc3ccccn3)c3c(-c4ccccc4)cccc23)cn1 [Example 77, 4-(6-aminopyridin-3-yl)-3-chloro-8-phenyl-N-(pyridin-2-ylmethyl)isoquinolin-1-amine]
52.3% | O=C(O)c1cncc(-c2c(Cl)nc(NCc3ccccn3)c3c(-c4ccccc4)cccc23)c1 [Example 12, 5-(3-Chloro-8-phenyl-1-(pyridin-2-ylmethylamino)isoquinolin-4-yl)nicotinic acid]
36.2% | CS(=O)(=O)Nc1cccc(-c2cc3cccc(-c4ccccc4)c3c(NCc3ccccn3)n2)c1 [Example 35, N-(3-(8-phenyl-1-(pyridin-2-ylmethylamino)isoquinolin-3-yl)phenyl)methanesulfonamide]
80.2% | c1ccc(-c2cccc3cc(-c4cc[nH]n4)nc(NCc4ccccn4)c23)cc1 [Example 23, 8-phenyl-3-(1H-pyrazol-3-yl)-N-(pyridin-2-ylmethyl)isoquinolin-1-amine]
